Test results as given in patent US20250230193A1, “CYCLIC COMPOUND HAVING SELECTIVE KRAS INHIBITORY EFFECT ON HRAS AND NRAS” (CHUGAI SEIYAKU KABUSHIKI KAISHA, priority 2022, published 2025).
Where a SMILES comes first, the peptide text is derived from it. Bridges are numbered along the chain shown (N, C = ends). [ ]: non-standard residue; d: D form. The star is where a group is joined. hPhe(3-Cl-4-CF3) = N[C@@H](CCc1ccc(C(F)(F)F)c(Cl)c1)C(=O)O; NPrPhe(4-CF3) = CCCN[C@@H](Cc1ccc(C(F)(F)F)cc1)C(=O)O; NEtPhe(4-Me) = CCN[C@@H](Cc1ccc(C)cc1)C(=O)O; NMeGly(cPent) = CN[C@H](C(=O)O)C1CCCC1; Pro(4,4-F2) = O=C(O)[C@@H]1CC(F)(F)CN1; NMeD = CN[C@@H](CC(=O)O)C(=O)O; NMeL = CN[C@@H](CC(C)C)C(=O)O; Morpholide = C1CN(*)CCO1; Ac5c = NC1(C(=O)O)CCCC1; Sar = CNCC(=O)O

Key:
[1] = molecular target: GDP-bound NRAS wild-type protein (Homo sapiens, UniProt P01111); test: Binding to NRAS by surface plasmon resonance (SPR), Single Cycle Kinetics; conditions: SPR
[2] = molecular target: GDP-bound HRAS wild-type protein (Homo sapiens, UniProt P01112); test: Binding to HRAS by surface plasmon resonance (SPR), Single Cycle Kinetics; conditions: SPR
[3] = KD ratio, GDP-bound NRAS wild-type vs GDP-bound KRAS wild-type
[4] = KD ratio, GDP-bound HRAS wild-type vs GDP-bound KRAS wild-type

Sequence of GDP-bound HRAS wild-type protein (P01112 whole entry): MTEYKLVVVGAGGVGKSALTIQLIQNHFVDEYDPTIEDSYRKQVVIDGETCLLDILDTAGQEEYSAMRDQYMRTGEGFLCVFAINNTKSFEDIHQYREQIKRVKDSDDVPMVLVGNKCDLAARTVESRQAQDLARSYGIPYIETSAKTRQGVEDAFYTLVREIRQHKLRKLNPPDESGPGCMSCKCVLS
Sequence of GDP-bound NRAS wild-type protein (P01111 whole entry): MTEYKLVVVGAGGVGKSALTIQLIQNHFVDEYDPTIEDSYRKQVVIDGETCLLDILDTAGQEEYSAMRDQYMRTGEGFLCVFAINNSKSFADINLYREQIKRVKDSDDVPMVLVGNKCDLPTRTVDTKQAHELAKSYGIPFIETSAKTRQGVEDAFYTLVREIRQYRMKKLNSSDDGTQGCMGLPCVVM

Row | SMILES | NRAS/KRAS (ratio of KD value with respect to NRAS to KD value with respect to KRAS) [1, 3] | HRAS/KRAS (ratio of KD value with respect to HRAS to KD value with respect to KRAS) [2, 4] | NRAS/KRAS (ratio of KD for GDP-bound NRAS wild-type to KD for KRAS) [1] | HRAS/KRAS (ratio of KD for GDP-bound HRAS wild-type to KD for KRAS) [2] | other results
1 | CCO[C@@H]1C[C@H]2C(=O)NC3(CCC3)C(=O)N(C)[C@@H](C3CCCC3)C(=O)N(C)[C@H](C(=O)N(C)CC)CC(=O)N(C)[C@H]3CCCC/C=C/c4ccc(cc4)C[C@@H](C(=O)N(C)CC(=O)N[C@@H](CCc4cc(F)c(C(F)(F)F)c(F)c4)C(=O)N2C1)N1CC/C=C\C[C@@H](C1=O)N(C)C(=O)CN(C)C(=O)[C@H]([C@@H](C)CC)NC3=O [PP1827, (1S,7S,11R,13S,19S,22S,26S,29S,35S,37Z,47E)-19-cyclopentyl-7-[2-[3,5-difluoro-4-(trifluoromethyl)phenyl]ethyl]-11-ethoxy-N-ethyl-N,3,18,21,25,31,34-heptamethyl-29-[(1S)-1-methylpropyl]-2,5,8,14,17,20,24,27,30,33,55-undecaoxo-spiro[3,6,9,15,18,21,25,28,31,34,41-undecazapentacyclo[24.15.11.2^43,46.1^35,41.0^9,13]pentapentaconta-37,43(54),44,46(53),47-pentaene-16,1′-cyclobutane]-22-carboxamide] |  |  |  |  | NRAS/KRAS (ratio of KD value for NRAS to KD value for KRAS) [1, 3]: A (a compound having 10 or more and less than 20 is denoted as A); HRAS/KRAS (ratio of KD value for HRAS to KD value for KRAS) [2, 4]: A (a compound having 10 or more and less than 20 is denoted as A)
2 | CC[C@H](C)[C@@H]1NC(=O)[C@H](CC)N(C)C(=O)C[C@@H](C(=O)N(C)C)N(C)C(=O)[C@H](C2CCCC2)N(C)C(=O)C2(CCC2)NC(=O)[C@H](COC)N(C)C(=O)[C@H](CCc2cc(F)c(C(F)(F)F)c(F)c2)NC(=O)CN(C)C(=O)[C@H](Cc2ccc(C(F)(F)F)cc2)N2CC/C=C\C[C@@H](C2=O)N(C)C(=O)CN(C)C1=O [PP1145] | A (a compound having 10 or more and less than 20 is denoted as A) | B (a compound having 3 or more and less than 10 is denoted as B) |  |  | 
3 | CC[C@H](C)[C@@H]1NC(=O)[C@H](CC(C)C)N(C)C(=O)C[C@@H](C(=O)N2CCOCC2)N(C)C(=O)[C@H](C2CCCC2)N(C)C(=O)C2(CCC2)NC(=O)[C@@H]2[C@@H](OC)CCN2C(=O)[C@H](CCc2cc(F)c(C(F)(F)F)c(F)c2)NC(=O)CN(C)C(=O)[C@H](Cc2ccc(C(F)(F)F)cc2)N2CCCC[C@@H](C2=O)N(C)C(=O)CN(C)C1=O [PP1075] | B (a compound having 3 or more and less than 10 is denoted as B) | B (a compound having 3 or more and less than 10 is denoted as B) |  |  | 
4 | CCCN1C(=O)CN(C)C(=O)CNC(=O)[C@H]([C@@H](C)CC)NC(=O)[C@H](CC(C)C)N(C)C(=O)C[C@@H](C(=O)N(C)C)NC(=O)[C@H](C2CCCC2)N(C)C(=O)C2(CCCC2)NC(=O)[C@@H]2CC(F)(F)CN2C(=O)[C@H](CCc2ccc(C(F)(F)F)c(Cl)c2)NC(=O)CN(C)C(=O)[C@@H]1Cc1ccc(C(F)(F)F)cc1 [PP0363] ([NMeL]IG[Sar][NPrPhe(4-CF3)][Sar][hPhe(3-Cl-4-CF3)][Pro(4,4-F2)][Ac5c][NMeGly(cPent)]D-NMe2; lactam N-11) |  |  | B (a compound having 3 or more and less than 10 is denoted as B) | C (A compound having a KD ratio of 0.1 or more and less than 3 is denoted as C) | 
5 | CCO[C@@H]1C[C@H]2C(=O)NC3(CCC3)C(=O)N(C)[C@@H](C3CCCC3)C(=O)N(C)[C@H](C(=O)N3CCOCC3)CC(=O)N(C)[C@@H](Cc3ccc(Cl)c(Cl)c3)C(=O)N[C@@H]([C@@H](C)CC)C(=O)N(C)CC(=O)N(C)[C@H]3CCCCCN(C3=O)[C@@H](Cc3ccc(F)cc3)C(=O)N(C)CC(=O)N[C@@H](CCc3cc(F)c(C(F)(F)F)c(F)c3)C(=O)N2C1 [PP1188] | B (a compound having 3 or more and less than 10 is denoted as B) | B (a compound having 3 or more and less than 10 is denoted as B) |  |  | 
6 | CC[C@H](C)[C@@H]1NC(=O)[C@H](CC(C)C)N(C)C(=O)C[C@@H](C(=O)N2CCOCC2)N(C)C(=O)[C@H](CC(C)C)N(C)C(=O)C2(CCCC2)NC(=O)[C@@H]2CCCN2C(=O)[C@H](CCc2ccc(C(F)(F)F)c(Cl)c2)NC(=O)CN(C)C(=O)[C@H](Cc2ccc(C)cc2)N(CC)C(=O)CN(C)C(=O)CN(C)C1=O [PP0045] ([NMeL]I[Sar][Sar][NEtPhe(4-Me)][Sar][hPhe(3-Cl-4-CF3)]P[Ac5c][NMeL][NMeD]-Morpholide; lactam N-11) |  |  | C (A compound having a KD ratio of 0.1 or more and less than 3 is denoted as C) | C (A compound having a KD ratio of 0.1 or more and less than 3 is denoted as C) | 
7 | CCCN1C(=O)CN(C)C(=O)CNC(=O)[C@H]([C@@H](C)CC)NC(=O)[C@H](CC(C)C)N(C)C(=O)C[C@@H](C(=O)N2CCOCC2)N(C)C(=O)[C@H](C2CCCC2)N(C)C(=O)C2(CCCC2)NC(=O)[C@@H]2CCCN2C(=O)[C@H](CCc2ccc(C(F)(F)F)c(Cl)c2)NC(=O)CN(C)C(=O)[C@@H]1Cc1ccc(C(F)(F)F)cc1 [PP0155] ([NMeL]IG[Sar][NPrPhe(4-CF3)][Sar][hPhe(3-Cl-4-CF3)]P[Ac5c][NMeGly(cPent)][NMeD]-Morpholide; lactam N-11) |  |  | B (a compound having 3 or more and less than 10 is denoted as B) | C (A compound having a KD ratio of 0.1 or more and less than 3 is denoted as C) | 
